Where “and” joins values, the source holds several entries; their conditions need not be identical. Equal values may be shown once.
Columns and labels:
Assay in all cases: radiometric filter-binding kinase assay, Kinase HotSpot
Conditions in all cases: compound 0.5 µM; ATP 10 µM
[1] = molecular target: TBK1 (human) (UniProt Q9UHD2)
[2] = molecular target: LYN (human) (UniProt P07948)
[3] = molecular target: MAP3K7 TAB1 (human) (UniProt O43318+Q15750)
[4] = molecular target: NEK3 (human) (UniProt P51956)
[5] = molecular target: PIM3 (human) (UniProt Q86V86)
[6] = molecular target: ZAP70 (human) (UniProt P43403)
[7] = molecular target: IKBKE (human) (UniProt Q14164)
[8] = molecular target: IRAK4 (human) (UniProt Q9NWZ3)
[9] = molecular target: GSK3B (human) (UniProt P49841)
[10] = molecular target: CDK4 CCND1 (human) (UniProt P24385+P11802)
[11] = molecular target: FYN (human) (UniProt P06241)
[12] = molecular target: PRKD3 (human) (UniProt O94806)
[13] = molecular target: MARK3 (human) (UniProt P27448)
Sequence of MARK3 (human) (P27448 whole entry, looked up): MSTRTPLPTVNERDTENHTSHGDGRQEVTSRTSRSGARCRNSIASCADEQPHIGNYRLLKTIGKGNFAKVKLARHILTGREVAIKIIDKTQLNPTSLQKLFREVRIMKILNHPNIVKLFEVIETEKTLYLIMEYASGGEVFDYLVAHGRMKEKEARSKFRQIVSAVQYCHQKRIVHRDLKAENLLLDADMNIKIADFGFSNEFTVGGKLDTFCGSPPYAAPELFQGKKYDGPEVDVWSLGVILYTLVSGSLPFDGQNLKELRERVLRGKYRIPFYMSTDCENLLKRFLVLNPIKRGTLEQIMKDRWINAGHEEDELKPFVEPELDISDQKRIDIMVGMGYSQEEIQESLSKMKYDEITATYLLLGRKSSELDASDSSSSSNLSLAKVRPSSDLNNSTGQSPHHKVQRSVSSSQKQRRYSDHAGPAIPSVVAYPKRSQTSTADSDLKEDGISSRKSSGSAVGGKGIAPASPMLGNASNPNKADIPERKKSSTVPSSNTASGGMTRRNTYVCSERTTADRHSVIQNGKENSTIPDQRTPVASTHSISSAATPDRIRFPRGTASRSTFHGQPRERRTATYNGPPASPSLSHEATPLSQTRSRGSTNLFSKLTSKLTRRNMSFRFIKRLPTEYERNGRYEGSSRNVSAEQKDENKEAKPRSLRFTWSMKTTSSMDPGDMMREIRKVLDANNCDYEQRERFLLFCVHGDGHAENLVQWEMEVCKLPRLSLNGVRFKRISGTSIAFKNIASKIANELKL

[14] = molecular target: CHEK1 (human) (UniProt O14757)
Sequence of CHEK1 (human) (O14757 whole entry, looked up): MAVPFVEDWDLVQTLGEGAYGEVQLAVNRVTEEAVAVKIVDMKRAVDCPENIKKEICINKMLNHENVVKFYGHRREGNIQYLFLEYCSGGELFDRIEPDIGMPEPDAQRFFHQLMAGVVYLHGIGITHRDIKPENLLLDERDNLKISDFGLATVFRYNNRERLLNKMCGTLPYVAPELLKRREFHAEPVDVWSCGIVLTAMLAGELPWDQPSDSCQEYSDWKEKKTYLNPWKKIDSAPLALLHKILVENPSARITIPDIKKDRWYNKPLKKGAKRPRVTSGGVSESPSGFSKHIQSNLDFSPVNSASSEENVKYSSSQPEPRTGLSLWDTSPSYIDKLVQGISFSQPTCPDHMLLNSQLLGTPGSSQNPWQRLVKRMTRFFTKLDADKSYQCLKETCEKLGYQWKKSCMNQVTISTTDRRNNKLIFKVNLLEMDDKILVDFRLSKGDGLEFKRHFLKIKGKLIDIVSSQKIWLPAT

[15] = molecular target: NEK7 (human) (UniProt Q8TDX7)
[16] = molecular target: WEE1 (human) (UniProt P30291)
[17] = molecular target: WNK2 (human) (UniProt Q9Y3S1)
[18] = molecular target: PAK1 (human) (UniProt Q13153)
[19] = molecular target: NEK2 (human) (UniProt P51955)
[20] = molecular target: SGK2 (human) (UniProt Q9HBY8)
[21] = molecular target: CAMK2D (human) (UniProt Q13557)
[22] = molecular target: MARK4 (human) (UniProt Q96L34)
[23] = molecular target: BRSK2 (human) (UniProt Q8IWQ3)
Sequence of BRSK2 (human) (Q8IWQ3 whole entry, looked up): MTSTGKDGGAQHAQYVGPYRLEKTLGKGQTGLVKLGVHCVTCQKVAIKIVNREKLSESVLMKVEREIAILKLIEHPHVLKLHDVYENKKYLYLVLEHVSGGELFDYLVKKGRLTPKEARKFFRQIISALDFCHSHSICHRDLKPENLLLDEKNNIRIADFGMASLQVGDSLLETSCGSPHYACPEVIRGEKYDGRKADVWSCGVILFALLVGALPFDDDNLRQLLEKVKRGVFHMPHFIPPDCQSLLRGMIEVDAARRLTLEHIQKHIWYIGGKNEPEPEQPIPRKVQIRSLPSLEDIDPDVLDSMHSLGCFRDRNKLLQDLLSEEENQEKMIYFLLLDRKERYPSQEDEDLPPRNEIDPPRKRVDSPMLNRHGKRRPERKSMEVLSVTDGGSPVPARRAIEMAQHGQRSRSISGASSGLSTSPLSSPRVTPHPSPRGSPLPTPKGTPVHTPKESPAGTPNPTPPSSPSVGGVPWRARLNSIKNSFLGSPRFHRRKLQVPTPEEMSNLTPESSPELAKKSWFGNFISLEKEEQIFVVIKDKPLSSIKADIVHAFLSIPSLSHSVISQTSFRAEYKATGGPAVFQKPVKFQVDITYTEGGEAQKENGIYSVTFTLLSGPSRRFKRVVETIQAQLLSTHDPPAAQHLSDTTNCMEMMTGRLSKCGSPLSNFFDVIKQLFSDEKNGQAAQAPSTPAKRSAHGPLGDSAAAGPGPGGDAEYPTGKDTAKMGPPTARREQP

[24] = molecular target: MAP4K4 (human) (UniProt O95819)
[25] = molecular target: TXK (human) (UniProt P42681)
[26] = molecular target: MAPKAPK3 (human) (UniProt Q16644)
Sequence of MAPKAPK3 (human) (Q16644 whole entry, looked up): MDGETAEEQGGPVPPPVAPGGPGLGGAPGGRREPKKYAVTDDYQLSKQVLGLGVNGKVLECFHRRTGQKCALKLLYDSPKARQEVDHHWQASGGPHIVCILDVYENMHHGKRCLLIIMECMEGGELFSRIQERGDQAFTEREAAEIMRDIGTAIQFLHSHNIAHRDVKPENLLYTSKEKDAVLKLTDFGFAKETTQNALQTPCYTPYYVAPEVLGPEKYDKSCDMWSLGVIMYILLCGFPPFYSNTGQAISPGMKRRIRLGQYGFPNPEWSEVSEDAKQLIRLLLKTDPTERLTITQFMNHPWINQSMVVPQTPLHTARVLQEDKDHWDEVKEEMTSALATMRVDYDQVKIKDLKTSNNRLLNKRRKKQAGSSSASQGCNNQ

[27] = molecular target: MAPK1 (human) (UniProt P28482)
[28] = molecular target: PRKCB2 (human) (UniProt P05771)
[29] = molecular target: NEK4 (human) (UniProt P51957)
Sequence of NEK4 (human) (P51957 whole entry, looked up): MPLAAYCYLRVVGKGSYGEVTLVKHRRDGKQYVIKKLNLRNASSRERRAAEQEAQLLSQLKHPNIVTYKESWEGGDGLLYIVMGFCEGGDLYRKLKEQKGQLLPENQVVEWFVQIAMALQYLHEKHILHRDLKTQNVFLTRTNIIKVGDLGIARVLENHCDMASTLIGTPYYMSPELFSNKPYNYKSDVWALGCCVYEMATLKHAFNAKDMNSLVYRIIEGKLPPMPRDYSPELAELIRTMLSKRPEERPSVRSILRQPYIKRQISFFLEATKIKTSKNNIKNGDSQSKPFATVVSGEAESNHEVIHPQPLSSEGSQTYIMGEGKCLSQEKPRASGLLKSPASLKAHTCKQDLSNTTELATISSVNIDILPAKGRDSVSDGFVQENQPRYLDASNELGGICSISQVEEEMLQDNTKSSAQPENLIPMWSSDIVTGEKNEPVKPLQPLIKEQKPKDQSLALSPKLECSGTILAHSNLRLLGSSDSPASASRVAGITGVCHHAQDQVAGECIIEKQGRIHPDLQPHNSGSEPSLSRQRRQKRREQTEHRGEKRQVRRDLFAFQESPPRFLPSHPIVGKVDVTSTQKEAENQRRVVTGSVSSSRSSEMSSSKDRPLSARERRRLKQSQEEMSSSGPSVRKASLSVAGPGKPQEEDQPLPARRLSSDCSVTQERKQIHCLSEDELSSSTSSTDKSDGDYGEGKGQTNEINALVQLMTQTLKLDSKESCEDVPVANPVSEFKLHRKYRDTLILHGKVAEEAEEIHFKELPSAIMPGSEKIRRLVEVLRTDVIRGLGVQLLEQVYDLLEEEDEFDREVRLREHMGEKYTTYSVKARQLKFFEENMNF

[30] = molecular target: PBK (human) (UniProt Q96KB5)
[31] = molecular target: PDGFRA (human) (UniProt P16234)
[32] = molecular target: ADRBK1 (human) (UniProt P25098)
[33] = molecular target: VRK1 (human) (UniProt Q99986)
[34] = molecular target: DAPK1 (human) (UniProt P53355)
[35] = molecular target: TSSK1B (human) (UniProt Q9BXA7)
[36] = molecular target: SRC (human) (UniProt P12931)
[37] = molecular target: ALK (human) (UniProt Q9UM73)
[38] = molecular target: CLK4 (human) (UniProt Q9HAZ1)
Sequence of CLK4 (human) (Q9HAZ1 whole entry, looked up): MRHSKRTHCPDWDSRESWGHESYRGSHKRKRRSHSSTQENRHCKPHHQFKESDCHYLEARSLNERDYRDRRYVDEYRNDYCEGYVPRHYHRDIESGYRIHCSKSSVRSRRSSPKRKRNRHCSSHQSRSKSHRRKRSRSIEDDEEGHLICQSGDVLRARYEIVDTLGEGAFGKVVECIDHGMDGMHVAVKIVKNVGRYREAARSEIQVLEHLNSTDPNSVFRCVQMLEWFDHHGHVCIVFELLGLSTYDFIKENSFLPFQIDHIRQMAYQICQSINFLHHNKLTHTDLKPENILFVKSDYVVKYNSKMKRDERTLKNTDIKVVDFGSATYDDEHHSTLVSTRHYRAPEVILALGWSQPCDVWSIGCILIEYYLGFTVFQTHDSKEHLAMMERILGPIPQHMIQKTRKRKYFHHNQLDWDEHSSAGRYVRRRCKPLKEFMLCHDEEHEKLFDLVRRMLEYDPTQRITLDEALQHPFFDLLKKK

[39] = molecular target: NEK1 (human) (UniProt Q96PY6)
[40] = molecular target: TGFBR2 (human) (UniProt P37173)
Sequence of TGFBR2 (human) (P37173 whole entry, looked up): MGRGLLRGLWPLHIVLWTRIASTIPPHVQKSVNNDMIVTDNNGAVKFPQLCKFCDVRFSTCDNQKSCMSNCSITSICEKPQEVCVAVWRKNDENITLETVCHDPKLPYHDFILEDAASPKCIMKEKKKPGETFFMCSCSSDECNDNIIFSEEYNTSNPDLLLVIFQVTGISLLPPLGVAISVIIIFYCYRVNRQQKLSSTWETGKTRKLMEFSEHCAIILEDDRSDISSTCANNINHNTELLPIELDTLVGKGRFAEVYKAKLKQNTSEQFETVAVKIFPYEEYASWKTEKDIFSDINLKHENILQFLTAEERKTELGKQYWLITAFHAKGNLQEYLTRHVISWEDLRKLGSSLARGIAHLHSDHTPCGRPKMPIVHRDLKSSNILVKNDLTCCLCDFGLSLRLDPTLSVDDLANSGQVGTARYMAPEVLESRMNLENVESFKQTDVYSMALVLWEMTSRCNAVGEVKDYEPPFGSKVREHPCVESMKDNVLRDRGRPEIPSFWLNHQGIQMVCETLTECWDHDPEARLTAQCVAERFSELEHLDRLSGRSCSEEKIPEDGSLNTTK

[41] = molecular target: RPS6KA3 KD1 KD2 (human) (UniProt P51812)
[42] = molecular target: IRAK1 (human) (UniProt P51617)

Sequence of LYN (human) (P07948 whole entry, looked up): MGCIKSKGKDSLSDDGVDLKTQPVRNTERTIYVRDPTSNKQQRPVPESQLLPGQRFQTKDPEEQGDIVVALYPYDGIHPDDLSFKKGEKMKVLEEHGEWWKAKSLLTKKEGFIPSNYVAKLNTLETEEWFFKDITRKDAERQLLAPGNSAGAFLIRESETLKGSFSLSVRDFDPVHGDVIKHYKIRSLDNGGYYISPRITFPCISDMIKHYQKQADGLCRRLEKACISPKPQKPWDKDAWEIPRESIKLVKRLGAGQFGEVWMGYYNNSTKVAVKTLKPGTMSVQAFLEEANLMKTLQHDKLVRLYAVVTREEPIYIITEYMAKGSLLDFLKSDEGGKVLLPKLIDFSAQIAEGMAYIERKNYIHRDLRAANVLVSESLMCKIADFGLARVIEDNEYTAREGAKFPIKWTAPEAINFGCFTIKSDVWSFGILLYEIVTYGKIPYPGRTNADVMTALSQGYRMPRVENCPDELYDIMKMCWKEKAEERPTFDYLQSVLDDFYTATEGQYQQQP

Q: With Cc1cc2ncc(-c3ccccc3)nc2cc1C as the compound, how does the residual activity [1] read?
A: 93.8%

Q: What about the residual activity [2] of the same compound?
A: 100% and 98.2%

Q: What about the residual activity [3] of the same compound?
A: 89.9%

Q: And the residual activity [4]?
A: 93.7%

Q: And the residual activity [5]?
A: 103%

Q: What about the residual activity [6] of the same compound?
A: 96.7%

Q: And the residual activity [7]?
A: 101%

Q: And the residual activity [8]?
A: 93.1%

Q: And the residual activity [9]?
A: 79.5%

Q: What about the residual activity [10] of the same compound?
A: 101%

Q: And the residual activity [11]?
A: 99.4%

Q: What about the residual activity [12] of the same compound?
A: 92.2%

Q: And the residual activity [13]?
A: 101%

Q: What about the residual activity [14] of the same compound?
A: 94.2%

Q: And the residual activity [15]?
A: 102%

Q: And the residual activity [16]?
A: 105%

Q: What about the residual activity [17] of the same compound?
A: 98.8%

Q: What about the residual activity [18] of the same compound?
A: 97.8%

Q: What about the residual activity [19] of the same compound?
A: 75.7%

Q: And the residual activity [20]?
A: 101%

Q: And the residual activity [21]?
A: 88.1%

Q: What about the residual activity [22] of the same compound?
A: 105%

Q: What about the residual activity [23] of the same compound?
A: 102%

Q: And the residual activity [24]?
A: 85%

Q: What about the residual activity [25] of the same compound?
A: 99.5%

Q: What about the residual activity [26] of the same compound?
A: 100%

Q: And the residual activity [27]?
A: 88%

Q: And the residual activity [28]?
A: 124%

Q: What about the residual activity [29] of the same compound?
A: 99.3%

Q: What about the residual activity [30] of the same compound?
A: 94.5%

Q: And the residual activity [31]?
A: 95.4%

Q: And the residual activity [32]?
A: 92.5%

Q: And the residual activity [33]?
A: 101%

Q: What about the residual activity [34] of the same compound?
A: 88.4%

Q: And the residual activity [35]?
A: 113%

Q: What about the residual activity [36] of the same compound?
A: 104%

Q: And the residual activity [37]?
A: 98%

Q: What about the residual activity [38] of the same compound?
A: 96%

Q: And the residual activity [39]?
A: 96.1%

Q: And the residual activity [40]?
A: 130%

Q: And the residual activity [41]?
A: 94.2%

Q: What about the residual activity [42] of the same compound?
A: 114%

Q: For Nc1nc(Nc2ccc(S(N)(=O)=O)cc2)nn1C(=O)c1c(F)cccc1F, which residual activity [1] is on record?
A: 80%

Q: And the residual activity [2]?
A: 103% and 80.5%

Q: And the residual activity [3]?
A: 77.4%

Q: And the residual activity [4]?
A: 92.6%

Q: What about the residual activity [5] of the same compound?
A: 102%

Q: And the residual activity [6]?
A: 94.8%

Q: And the residual activity [7]?
A: 95.9%

Q: What about the residual activity [8] of the same compound?
A: 151%

Q: And the residual activity [9]?
A: 22%

Q: What about the residual activity [10] of the same compound?
A: 20%

Q: What about the residual activity [11] of the same compound?
A: 78.6%

Q: What about the residual activity [12] of the same compound?
A: 55.6%

Q: What about the residual activity [13] of the same compound?
A: 67.6%

Q: And the residual activity [14]?
A: 76.3%

Q: What about the residual activity [15] of the same compound?
A: 99%

Q: What about the residual activity [16] of the same compound?
A: 83.6%

Q: And the residual activity [17]?
A: 116%

Q: What about the residual activity [18] of the same compound?
A: 89.5%

Q: And the residual activity [19]?
A: 94.8%

Q: What about the residual activity [20] of the same compound?
A: 106%

Q: And the residual activity [21]?
A: 94.6%

Q: And the residual activity [22]?
A: 48%

Q: What about the residual activity [23] of the same compound?
A: 49%

Q: And the residual activity [24]?
A: 83.8%

Q: What about the residual activity [25] of the same compound?
A: 95.8%

Q: What about the residual activity [26] of the same compound?
A: 98%

Q: What about the residual activity [27] of the same compound?
A: 98.4%

Q: And the residual activity [28]?
A: 90.5%

Q: And the residual activity [29]?
A: 79.2%

Q: What about the residual activity [30] of the same compound?
A: 92.1%

Q: What about the residual activity [31] of the same compound?
A: 82%

Q: What about the residual activity [32] of the same compound?
A: 97.3%

Q: What about the residual activity [33] of the same compound?
A: 90.4%

Q: And the residual activity [34]?
A: 93.8%

Q: What about the residual activity [35] of the same compound?
A: 85.5%

Q: What about the residual activity [36] of the same compound?
A: 76.3%

Q: And the residual activity [37]?
A: 90.1%

Q: And the residual activity [38]?
A: 41.6%

Q: What about the residual activity [39] of the same compound?
A: 76.3%

Q: And the residual activity [40]?
A: 98.5%

Q: And the residual activity [41]?
A: 38.6%

Q: What about the residual activity [42] of the same compound?
A: 89.8%

— the kinase profiling compilation of Christmann-Franck et al. (2016)
